Data reported in patent publication US9993453B2, “Dosage forms and therapeutic uses L-4-chlorokynurenine” (VISTAGEN THERAPEUTICS, INC., priority 2013, dated 2018).
Read-outs that look alike come from different tables or passages of the source. One block for each compound: values may come before it.

Key:
[1] = biological target: glycine B (GlyB) coagonist site on the NMDA-R (Homo sapiens, UniProt Q05586); settings: cited from earlier work
[2] = after administration; cited from earlier work
[3] = system: excitotoxic and ischemic neuronal damage; settings: cited from earlier work
[4] = Phase 1b clinical study: plasma pharmacokinetics after single and multiple once-daily oral doses of AV-101; settings: human plasma
Procedure: (§1) A Phase 1b, single-site, randomized, double-blind, placebo-controlled, study was conducted involving multiple oral doses of AV-101 in healthy male and female subjects. Subjects were randomized into one of three cohorts (360, 1,080, and 1,440 mg) and received a daily oral dose for 14 consecutive days. […] The safety, pharmacokinetics (PK), tolerability of treatment, and antihyperalgesic effect of AV-101 on capsaicin-induced hyperalgesia were assessed.
(§2) Blood was collected in 6-mL lithium heparin Vacutainer tubes. Samples were centrifuged, and the plasma was separated from the cells and frozen within 30 minutes after centrifugation. Centrifuged samples were placed on ice until they were placed in the freezer. Plasma samples were stored frozen at approximately −20° C. until their shipment to a contractor for analysis.
(§3) Baseline samples (0 minutes) were collected before the drug was administered on Day 1 and on Day 14. Samples were then collected at 0.5, 1, 1.5, 2, 4, 6, 8, 12, and 24 hours after dosing on Day land Day 14.
(§4) Both assays used a plasma sample volume of 50.0 μL.

[5] = system: activated astrocytes; settings: within activated astrocytes (Reference 5); cited from earlier work
[6] = human, in vivo, po
Procedure: as §1, §2, §3, §4

[7] = Safety and tolerability in humans (clinical study); type: in vivo, human; settings: certain doses (360, 1,080, 1,440 mg daily oral)
Procedure: The compound is an antihyperalgesic.
“Without significant adverse effect” means that substantially all patients to whom L-4-chlorokynurenine is administered will have no more than a “mild” adverse event as defined by the U.S. Food and Drug Administration (FDA). The FDA defines a “mild adverse event” as an event that is easily tolerated by the subject, causing minimal discomfort and not interfering with everyday activities. In contrast, a “moderate adverse event” is an event that is sufficiently discomforting causing it to interfere with normal everyday activities.

[8] = system: peripheral tissue inflammation and nerve injury; assay: Animal models of peripheral tissue inflammation and nerve injury; type: in vivo
[9] = system: dopaminergic neurons; settings: brains of rats (Reference 7); cited from earlier work
[10] = system: seizures; settings: rats, preclinical studies (Reference 11); cited from earlier work
[11] = system: capsaicin-induced hyperalgesia; assay: Antihyperalgesic effect on capsaicin-induced hyperalgesia (VAS pain assessments) in Phase 1b study; type: in vivo, human
Procedure: On Day 1 and Day 14 of the clinical study, two intradermal injections of 250 μg of capsaicin were injected sequentially into the volar aspect of alternate forearms to produce burning pain, secondary hyperalgesia, and a flare. The capsaicin USP (United States Pharmacopeia) was prepared according to the site's standard procedure and dissolved in 20% cyclodextrin at a concentration of 10 mg/mL.
The first capsaicin injection in one forearm was given 1 hour after oral administration of AV-101 or placebo, and the second capsaicin injection was given in the other forearm 2 hours after the administration of AV-101 or placebo. The neurosensory testing began immediately at each capsaicin injection. The serial pain assessments using a 100-mm visual analog scale (VAS) occurred at preinjection and 0, 5, 10, 15, 30, 45, and 60 minutes after each capsaicin injection. The examiner asked the subject to rate the intensity by using the VAS of the spontaneous pain and elicited pain from the application of a 5.18 von Frey hair, 40° C. probe, and gentle stroking with a 1-inch foam brush. The VAS consisted of a 100-mm line with “no pain” written at the 0-mm end and the “worst imaginable pain” written at the 100-mm end. The distance in millimeters provided the pain measurement.
At least eight determinations of the hyperalgesic area borders were made using the same assessments and starting at different angles. Additionally, subjects were asked to rate the pain intensity of a 1-minute 45° C. heat stimulus (brief thermal stimulation) applied to the anterior thigh at 4.5 hours (±5 minutes) after study drug administration, then every 30 minutes (±5 minutes) through 6 hours after study drug administration. A radiant temperature probe was applied to fix the skin temperature at 36° C. during the pain assessments. Subjects used the VAS for all pain assessments.
All study assessment time points were anchored to Time 0, the time of study drug administration. For the capsaicin injection at 1 hour after dosing, the assessment interval (i.e., time after dosing of the study drug) was 60 to 120 minutes, during which time assessments occurred at approximately 60, 65, 70, and 75 minutes and then every 15 minutes through the 120-minute time point (i.e., 0, 5, 10, 15, 30, 45, and 60 minutes after capsaicin injection). The second injection of capsaicin was administered approximately 2 hours after dosing of the clinical trial material (CTM), and the assessment interval (i.e., time after dosing of the CTM) was 120 to 180 minutes. The serial pain assessments followed the same schedule, as described after the first capsaicin injection.
The primary efficacy endpoint was the analgesic response to spontaneous pain at each dose level of AV-101 120 to 180 minutes after dosing on Day 14.

[12] = Reported feelings of well-being (anti-depressive activity) in the clinical study; type: in vivo, human; settings: zero subjects in the placebo group
Excerpt: In the clinical study described in this application, 5 out of 26 subjects (as contrasted with zero subjects in the placebo group) affirmatively reported feelings of well being. This is consistent with reports that the glutamatergic system contributes to the pathophysiology of depression and that stress can induce changes in NMDA receptors. See, for example, Calabrese et al. “Stress-Induced Changes of Hippocampal NMDA Receptors: Modulation by Duloxetine Treatment,” PLoS ONE 2012, 7(5): e37916. doi:10.1371/journal.pone.0037916.

[13] = Day 1, after 1,440-mg oral dose of L-4-chlorokynurenine

Compound: O=C(O)c1cc(O)c2ccc(Cl)cc2n1 [7-chlorokynurenic acid]
- GlyB antagonist potency and specificity [1]: One of the most potent and specific GlyB antagonists
- Crossing of the blood-brain barrier / access to the CNS [2]: does not cross the blood-brain barrier
- Prevention of excitotoxic and ischemic neuronal damage [3]: prevent excitotoxic and ischemic neuronal damage
- Mean 7-chlorokynurenic acid Cmax ([4]; Day 1, after 360-mg oral dose of L-4-chlorokynurenine): 42.7 ng/mL
- Mean 7-chlorokynurenic acid AUCO-t [4, 13]: 985 ng·b/mL
- Mean 7-chlorokynurenic acid Cmax [4, 13]: 314 ng/mL
- Mean 7-chlorokynurenic acid AUCO-t ([4]; Day 1, after lowest dose (360 mg) of L-4-chlorokynurenine): 156 ng·h/mL
- Dose linearity of mean 7-chlorokynurenic acid Cmax and AUCO-t ([4]; after oral L-4-chlorokynurenine 360 to 1,440 mg): approximately dose linear
- Mean Cmax and AUCO-t of 7-chlorokynurenic acid on Day 14 compared with Day 1 ([4]; once-daily oral L-4-chlorokynurenine for 14 days): slightly lower on Day 14 than those on Day 1

- Mean L-4-chlorokynurenine AUCO-t [6]: 196000 ng·h/mL
- Mean L-4-chlorokynurenine Tmax [6]: ~2 h
- Mean t½ of L-4-chlorokynurenine [6]: 1.64 to 1.82 h
- Mean L-4-chlorokynurenine AUCO-t ([6]; 360 mg): 64000 ng·h/mL
Compound: Nc1cc(Cl)ccc1C(=O)CC(N)C(=O)O [L-4-chlorokynurenine]
- Conversion to 7-chlorokynurenic acid [5]: efficiently converted
- Dose linearity of mean L-4-chlorokynurenine Cmax and AUCO-∞ [6]: approximately dose linear, although not proportional
- Mean Cmax and AUCO-t of L-4-chlorokynurenine on Day 14 compared with Day 1 [6]: slightly lower on Day 14 than those on Day 1
- Safety and tolerability in humans [7]: safe and tolerable in humans without substantial side effects or any significant adverse effects
- Crossing of the blood-brain barrier / access to the CNS [2]: readily gains access to the central nervous system
- Tolerability in animal models ([8]; at doses that produce antihyperalgesic effects): well tolerated
- Antihyperalgesic actions in animal models ([8]; three animal models of peripheral tissue inflammation and nerve injury): potent antihyperalgesic actions
- Firing rate and burst firing activity of dopaminergic neurons [9]: increase the firing rate and burst firing activity
- Anti-seizure activity [10]: anti-seizure activity
- Least squares means of the AUPC for allodynia pain, mechanical hyperalgesia pain and heat hyperalgesia pain ([11]; 1,080 mg (Cohort 2) versus placebo): consistent decrease
- MAXPAIN, Spontaneous Pain ([11]; 1080 mg oral daily, n=13, 100-mm VAS, placebo 77.00): 75.08
- MAXPAIN, Allodynia Pain (foam brush) ([11]; 1080 mg oral daily, n=13, 100-mm VAS, placebo 79.50): 70.92
- MAXPAIN, Mechanical Allogesia ([11]; 1080 mg oral daily, n=13, 100-mm VAS, placebo 79.75): 66.23
- MAXPAIN, Heat Allogesia ([11]; 1080 mg oral daily, n=13, 100-mm VAS, placebo 84.75): 78.85
- Secondary efficacy endpoints (AUPC for spontaneous pain, elicited pain from von Frey hair and 40° C. probe) ([11]; 120 to 180 minutes Day 1, 60 to 180 minutes Days 1 and 14, versus placebo): no significant changes
- Area under the pain time curve (AUPC) for spontaneous pain, primary efficacy endpoint ([11]; each dose level, 120 to 180 minutes after dosing on Day 14, versus placebo): no significant change
- Subject-reported relief from neuropathic pain, specifically hyperalgesia pain ([11]; humans, at the clinical dosages): subjects reported relief from neuropathic pain
- Subjects affirmatively reporting feelings of well being [12]: 5 out of 26
